Molecular target: T1, hGPR120 (Homo sapiens, UniProt Q5NUL3)
T1 construct: expressed in transfected cells; host or cells: CHO-K1
T1 sequence (Q5NUL3 1-361): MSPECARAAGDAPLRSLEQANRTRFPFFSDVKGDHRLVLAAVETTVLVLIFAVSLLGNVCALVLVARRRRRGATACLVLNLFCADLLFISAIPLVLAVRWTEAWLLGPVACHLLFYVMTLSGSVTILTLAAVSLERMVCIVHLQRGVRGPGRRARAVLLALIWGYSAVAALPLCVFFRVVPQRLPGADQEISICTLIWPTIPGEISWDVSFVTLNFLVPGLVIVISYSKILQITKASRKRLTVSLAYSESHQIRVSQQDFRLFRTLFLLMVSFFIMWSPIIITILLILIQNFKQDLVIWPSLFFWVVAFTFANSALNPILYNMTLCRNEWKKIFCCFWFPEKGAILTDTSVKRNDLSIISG
Assay: Measurement of activity of GPR120 agonist (cell-based calcium fluorescence assay)
Conditions: CHO-K1 cells expressing Ga16 and hGPR120, Calcium 5 dye fluorescence; activity class; read-out: EC50
Method in brief: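 CHO-K1 cells co-expressing Gα16 and hGPR120, plated 18 h, loaded with Calcium 5 dye for 1 h at 37 °C, then given serially diluted agonists (final 0.5% DMSO). Fluorescence increase expressed as relative % of the 1% DMSO-only signal.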

Row | EC50 | Compound
1 | < 200 nM | O=C(O)CCCSc1ccc(-c2cc(F)ccc2NC2CCCC2)cc1F [Example 175, 4-(2′-cyclopentylamino-3,5′-difluoro-biphenyl-4-ylsulfanyl)-butyric acid]
2 | < 200 nM | O=C(O)CCCSc1ccc(-c2cc(F)ccc2NC2CCCC2)cc1 [Example 176, 4-(2′-cyclopentylamino-5′-fluoro-biphenyl-4-ylsulfanyl)-butyric acid]
3 | 200 to 2000 nM | Cc1ccc(OC2CCCC2)c(-c2ccc(SCCCC(=O)O)cc2)c1 [Example 177, 4-(2′-cyclopentyloxy-5′-methyl-biphenyl-4-ylsulfanyl)-butyric acid]
4 | 200 to 2000 nM | O=C(O)CCCSc1ccc(-c2cc(F)ccc2OC2CCCC2)cc1 [Example 179, 4-(2′-cyclopentyloxy-5′-fluoro-biphenyl-4-ylsulfanyl)-butyric acid]
5 | 200 to 2000 nM | O=C(O)CCCSc1ccc(-c2cc(F)ccc2OC2CCCC2)cc1F [Example 180, 4-(2′-cyclopentyloxy-3,5′-difluoro-biphenyl-4-ylsulfanyl)-butyric acid]
6 | 200 to 2000 nM | Cc1cnc(OC2CCCC2)c(-c2ccc(SCCCC(=O)O)cc2)c1 [Example 181, 4-[4-(2-cyclopentyloxy-5-methyl-pyridin-3-yl)-phenylsulfanyl]-butyric acid]
7 | 200 to 2000 nM | COc1ccc(-c2ccc(SCCCC(=O)O)c(F)c2)c(OC2CCCC2)c1 [Example 183, 4-(2′-cyclopentyloxy-3-fluoro-4′-methoxy-biphenyl-4-ylsulfanyl)-butyric acid]
8 | 200 to 2000 nM | COc1ccc(-c2cc(F)c(SCCCC(=O)O)c(F)c2)c(OC2CCCC2)c1 [Example 184, 4-(2′-cyclopentyloxy-3,5-difluoro-4′-methoxy-biphenyl-4-ylsulfanyl)-butyric acid]
9 | < 200 nM | COc1ccc(-c2ccc(SCCCC(=O)O)c(F)c2)c(OC(C)C)c1 [Example 185, 4-(3-fluoro-2′-isopropoxy-4′-methoxy-biphenyl-4-ylsulfanyl)-butyric acid]
10 | < 200 nM | Cc1cnc(OC2CCCC2)c(-c2ccc(SCCCC(=O)O)c(F)c2)c1 [Example 186, 4-[4-(2-cyclopentyloxy-5-methyl-pyridin-3-yl)-2-fluoro-phenylsulfanyl]-butyric acid]
11 | < 200 nM | Cc1cnc(OC(C)C)c(-c2ccc(SCCCC(=O)O)c(F)c2)c1 [Example 187, 4-[2-fluoro-4-(2-isopropoxy-5-methyl-pyridin-3-yl)-phenylsulfanyl]-butyric acid]
12 | < 200 nM | CC(C)Oc1ccc(F)cc1-c1ccc(SCCCC(=O)O)c(F)c1 [Example 188, 4-(3,5′-difluoro-2′-isopropoxy-biphenyl-4-ylsulfanyl)-butyric acid]
13 | 200 to 2000 nM | Cc1ccc(-c2ccc(SCCCC(=O)O)c(F)c2)c(OC2CCCC2)n1 [Example 189, 4-[4-(2-cyclopentyloxy-6-methyl-pyridin-3-yl)-2-fluoro-phenylsulfanyl]-butyric acid]
14 | < 200 nM | Cc1cc(F)c(OC(C)C)c(-c2ccc(SCCCC(=O)O)c(F)c2)c1 [Example 190, 4-(3,3′-difluoro-2′-isopropoxy-5′-methyl-biphenyl-4-ylsulfanyl)-butyric acid]
15 | < 200 nM | CCCOc1c(F)cc(C)cc1-c1ccc(SCCCC(=O)O)c(F)c1 [Example 191, 4-(3,3′-difluoro-5′-methyl-2′-propoxy-biphenyl-4-ylsulfanyl)-butyric acid]
16 | 2000 to 20000 nM | CCCOc1ccc(-c2ccc(SCCCC(=O)O)c(F)c2)c(OCCC)c1 [Example 192, 4-(3-fluoro-2′,4′-dipropoxy-biphenyl-4-ylsulfanyl)-butyric acid]
17 | 200 to 2000 nM | Cc1ccc(OC2CCCC2)c(-c2ccc(SCCCC(=O)O)c(F)c2)c1F [Example 193, 4-(6′-cyclopentyloxy-3,2′-difluoro-3′-methyl-biphenyl-4-ylsulfanyl)-butyric acid]
18 | > 20000 nM | O=C(O)CCCSc1ccc(-c2cccc(F)c2OC2CCCC2)cc1F [Example 194, 4-(2′-cyclopentyloxy-3,3′-difluoro-biphenyl-4-ylsulfanyl)-butyric acid]
19 | 200 to 2000 nM | Cc1cc(F)c(OC2CCCC2)c(-c2ccc(SCCCC(=O)O)c(F)c2)c1 [Example 195, 4-(2′-cyclopentyloxy-3,3′-difluoro-5′-methyl-biphenyl-4-ylsulfanyl)-butyric acid]
20 | < 200 nM | O=C(O)CCCCOc1c(F)cc(-c2cccnc2OCC2CCC2)cc1F [Example 196, 5-[4-(2-cyclobutylmethoxy-pyridin-3-yl)-2,6-difluoro-phenoxy]-pentanoic acid]

Row | EC50 | Compound
21 | 200 to 2000 nM | O=C(O)CCCCOc1c(F)cc(-c2cccnc2OC2CC2)cc1F [Example 197, 5-[4-(2-cyclopropoxy-pyridin-3-yl)-2,6-difluoro-phenoxy]-pentanoic acid]
22 | < 200 nM | Cc1cnc(OC2CCCC2)c(-c2cc(F)c(SCCCC(=O)O)c(F)c2)c1 [Example 198, 4-[4-(2-cyclopentyloxy-5-methyl-pyridin-3-yl)-2,6-difluoro-phenylsulfanyl]-butyri c acid]
23 | < 200 nM | CC(CCC(=O)O)Sc1ccc(-c2cccnc2OC2CCCC2)cc1 (stereo not drawn) [Example 199, 4-[4-(2-cyclopentyloxy-pyridin-3-yl)-phenylsulfanyl]-pentanoic acid]
24 | 200 to 2000 nM | CC(C)Oc1ncccc1-c1ccc(SC(C)CCC(=O)O)cc1 (stereo not drawn) [Example 200, 4-[4-(2-isopropoxy-pyridin-3-yl)-phenylsulfanyl]-pentanoic acid]
25 | < 200 nM | CC(CCC(=O)O)Sc1c(F)cc(-c2cccnc2OC2CCCC2)cc1F (stereo not drawn) [Example 201, 4-[4-(2-cyclopentyloxy-pyridin-3-yl)-2,6-difluoro-phenylsulfanyl]-pentanoic acid]
26 | < 200 nM | CC(CCC(=O)O)Sc1c(F)cc(-c2cccnc2SC2CCCC2)cc1F (stereo not drawn) [Example 202, 4-[4-(2-cyclopentylsulfanyl-pyridin-3-yl)-2,6-difluoro-phenylsulfanyl]-pentanoic acid]
27 | > 20000 nM | CN(C)CCOc1ncccc1-c1cc(F)c(OCCCC(=O)O)c(F)c1 [Example 203, 4-[4-[2-(2-dimethylaminoethyloxy)-3-pyridyl]-2,6-difluoro-phenoxy]butanoic acid]
28 | < 200 nM | CCCSc1ncccc1-c1cc(F)c(OCCCC(=O)O)c(F)c1 [Example 204, 4-[2,6-difluoro-4-(2-propylsulfanyl-pyridin-3-yl)-phenoxy]-butanoic acid]
29 | 200 to 2000 nM | O=C(O)CCCOc1c(F)cc(-c2cccnc2SC2CC2)cc1F [Example 205, 4-[4-(2-cyclopropylsulfanyl-pyridin-3-yl)-2,6-difluoro-phenoxy]-butanoic acid]
30 | < 200 nM | CCSc1ncccc1-c1cc(F)c(OCCCC(=O)O)c(F)c1 [Example 206, 4-[4-(2-ethylsulfanyl-pyridin-3-yl)-2,6-difluoro-phenoxy]-butanoic acid]
31 | < 200 nM | CCCCSc1ncccc1-c1cc(F)c(OCCCC(=O)O)c(F)c1 [Example 207, 4-[4-(2-butylsulfanyl-pyridin-3-yl)-2,6-difluoro-phenoxy]-butanoic acid]
32 | < 200 nM | O=C(O)CCCSc1ccc(-c2ccccc2NC2CCCC2)cc1 [Example 208, 4-(2′-cyclopentylamino-biphenyl-4-ylsulfanyl)-butyric acid]
33 | < 200 nM | Cc1cnc(OC2CCCC2)c(-c2cc(F)c(OCCCC(=O)O)c(F)c2)c1 [Example 209, 4-[4-(2-cyclopentyloxy-5-methyl-pyridin-3-yl)-2,6-difluoro-phenoxy]-butyric acid]
34 | < 200 nM | CC(C)Sc1cccc(-c2ccc(OCCCC(=O)O)cc2)n1 [Example 210, 4-[4-(6-isopropylsulfanyl-2-pyridyl)phenoxy]butanoic acid]
35 | > 20000 nM | CN(C)C1CCN(c2cccc(-c3cc(F)c(OCCCC(=O)O)c(F)c3)n2)C1 (stereo not drawn) [Example 212, 4-[4-[6-[3-(dimethylamino)pyrrolidin-1-yl]-2-pyridyl]-2,6-difluoro-phenoxy]butanoic acid]
36 | < 200 nM | CC(C)Oc1ncccc1-c1cc(F)c(OCCCCC(=O)O)c(F)c1 [Example 213, 5-[2,6-difluoro-4-(2-isopropoxy-pyridin-3-yl)-phenoxy]-pentanoic acid]
37 | 200 to 2000 nM | O=C(O)CCCOc1c(F)cc(-c2cccnc2N2CCC(F)(F)C2)cc1F [Example 215, 4-[4-[2-(3,3-difluoropyrrolidin-1-yl)-3-pyridyl]-2,6-difluoro-phenoxy]butanoic acid]
38 | > 20000 nM | CN1CCN(c2ncccc2-c2cc(F)c(OCCCC(=O)O)c(F)c2)CC1 [Example 216, 4-[2,6-difluoro-4-[2-(4-methylpiperazin-1-yl)-3-pyridyl]phenoxy]butanoic acid]
39 | 2000 to 20000 nM | Cc1cc(Oc2ncccc2-c2cc(F)c(OCCCC(=O)O)c(F)c2)no1 [Example 217, 4-[2,6-difluoro-4-[2-(5-methylisoxazol-3-yl)oxy-3-pyridyl]phenoxy]butanoic acid]
40 | 200 to 2000 nM | O=C(O)CCCOc1c(F)cc(-c2cccnc2OCc2ccco2)cc1F [Example 220, 4-[2,6-difluoro-4-[2-(2-furylmethoxy)-3-pyridyl]phenoxy]butanoic acid]

Row | Compound | EC50
41 | O=C(O)CCCCOc1c(F)cc(-c2cccnc2OC2CCC2)cc1F [Example 214, 5-[4-(2-cyclobutoxy-pyridin-3-yl)-2,6-difluoro-phenoxy]-pentanoic acid] | < 200 nM
42 | O=C(O)CCCOc1c(F)cc(-c2cccnc2OCCN2CC2)cc1F [Example 218, 4-[4-[2-[2-(aziridin-1-yl)ethoxy]-3-pyridyl]-2,6-difluoro-phenoxy]butanoic acid] | > 20000 nM

Reference: patent US10221138B2, “Biaryl derivatives as GPR120 agonists” (LG CHEM, LTD., priority 2013, dated 2019)
